Results on 9 compounds are retold here after PMC9607427, “Novel 7-Chloro-(4-thioalkylquinoline) Derivatives: Synthesis and Antiproliferative Activity through Inducing Apoptosis and DNA/RNA Damage” (Pharmaceuticals, 2022).

Format in all cases: cell-based, human
The test system of data set [1] is K562-TAX (chronic myeloid leukemia paclitaxel-resistant subline). Kind of data set: Cytotoxic MTS assay, K562-TAX. The settings on record: Homo sapiens, K562-Tax; MTS, 72 h of incubation; read-out: Cytotoxic activity IC50, K562-TAX. The protocol:
(§1) In vitro cytotoxic activity of final compounds 5–82 was evaluated after 3 days of incubation against eight cell lines derived from human solid tumors including lung (A549 cells) and colon (HCT116 and HCT116p53−/−) carcinomas, as well as leukemia cell lines (CCRF-CEM, CEM-DNR, K562, and K562-TAX) and osteosarcoma (U2OS cells). For comparison, non-malignant BJ and MRC-5 fibroblasts, and BJLD and MCR-5LD fibroblasts doxorubicin-resistant cell lines were used. Concentrations inhibiting the cell growth by 50% (IC50) were determined using a quantitative metabolic staining with 3-(4,5-dimethylthiazol-2yl)-5-(3-carboxymethoxyphenyl)-2-(4-sulfophenyl)-2H-tetrazolium (MTS) and are summarized in (Table 3).
(§2) Cytotoxic activity was determined by MTS assay following 72 h of incubation. IC50 is the lowest concentration that kills 50% of cells. The standard deviation in cytotoxicity assays is typically up to 20% of the average value. […] The tested cell lines: A549 (lung adenocarcinoma), BJ (noncancerous human fibroblasts from foreskin), BJLD (human lung fibroblast doxorubicin-resistant), CCRF-CEM (childhood T cell acute lymphoblastic leukemia), a daunorubicin-resistant subline of CCRF-CEM cells (CEM-DNR bulk), HCT116 (colorectal carcinoma), HCT116p53−/− (HCT116 with deleted p53 gene), K562 (chronic myeloid leukemia), K562-TAX (chronic myeloid leukemia paclitaxel-resistant subline), MRC-5 (noncancerous human lung fibroblasts), MRC-5LD (noncancerous human lung fibroblasts doxorubicin-resistant), and U2OS (osteosarcoma).
(§3) All cell lines were purchased from the American Tissue Culture Collection (ATCC). The A549 cell line is lung adenocarcinoma. MRC-5 and BJ cell lines were used as a non-tumor control and represent human fibroblasts. (MRC-5 LD and BJLD) are doxorubicin-resistant human lung fibroblast cell lines. The CCRF-CEM line is derived from T lymphoblastic leukemia, evincing high chemosensitivity, whereas K562 represent cells from an […] patient sample with bcr-abl translocation. The daunorubicin-resistant subline of CCRF-CEM cells (CEM-DNR bulk) and paclitaxel-resistant subline K562-TAX were selected in our laboratory by the cultivation of maternal cell lines in increasing concentrations of daunorubicin or paclitaxel, respectively. The CEM-DNR bulk cells overexpress MRP-1 and P-glycoprotein protein, whereas K562-TAX cells overexpress P-glycoprotein only. Both proteins belong to the family of ABC transporters and are involved in the primary and/or acquired multidrug-resistance phenomenon. The U2OS cell line is derived from osteosarcoma, HCT116 is a colorectal tumor cell line and its p53 gene knock-down counterpart (HCT116p53−/−, Horizon Discovery Ltd., Cambridge, UK) is a model of human cancers with p53 mutation frequently associated with poor prognosis. The cells were maintained in nunc/corning 80 cm^2 plastic tissue culture flasks and cultured in a cell culture medium according to ATCC or Horizon recommendations (DMEM/RPMI 1640 with 5 g/L glucose, 2 mM glutamine, 100 U/mL penicillin, […], 10% fetal calf serum, and NaHCO3).
(§4) The activity of compounds was determined using a standard 3-(4,5-dimethylthiazol-2-yl)-5-(3-carboxymethoxyphenyl)-2-(4-sulfophenyl)-2H-tetrazolium (MTS) and it was performed at the Institute of Molecular and Translational Medicine by a robotic platform (High-ResBiosolutions). Cell suspensions were prepared and diluted according to the particular cell type and the expected target cell density (25,000–35,000 cells/mL based on cell growth characteristics). Cells were added by automatic pipettor (30 µL) into 384-well microtiter plates. All tested compounds were dissolved in 100% DMSO and four-fold dilutions of the intended test concentration were added in 0.15 µL aliquots at time zero to the microtiter plate wells by the echo acoustic non-contact liquid handler Echo550 (Labcyte). […]

Data set [2] in a line: Cytotoxic MTS assay, BJ. The settings on record: human, BJ cells (noncancerous foreskin fibroblasts); MTS, 72 h of incubation. The procedure:
as §1, §2, §3, §4
For orientation: Tetrazolium dyes change colour on reduction, which living cells bring about.

Data set [3] relates to HCT116 (colorectal carcinoma). The data set is described as follows: Cytotoxic MTS assay, HCT116. The settings on record: Homo sapiens, HCT-116; MTS, 72 h of incubation; read-out: Cytotoxic activity IC50, HCT116. The protocol:
as §1, §2, §3, §4

The subject of data set [4] is K562 (chronic myeloid leukemia). The data set is described as follows: Cytotoxic MTS assay, K562. The settings on record: Homo sapiens, K562; MTS, 72 h of incubation; read-out: Cytotoxic activity IC50, K562. The procedure: as §1, §2, §3, §4
For data set [5], the system named is CCRF-CEM (childhood T cell acute lymphoblastic leukemia). The data set is described as follows: Cytotoxic MTS assay, CCRF-CEM. As to conditions: Homo sapiens, CCRF-CEM; MTS, 72 h of incubation; read-out: Cytotoxic activity IC50, CCRF-CEM. The procedure: as §1, §2, §3, §4
Data set [6] concerns HCT116p53−/− (HCT116 with deleted p53 gene). Kind of data set: Cytotoxic MTS assay, HCT116p53−/−. As to conditions: Homo sapiens, HCT-116; MTS, 72 h of incubation; read-out: Cytotoxic activity IC50, HCT116-p53. The protocol: as §1, §2, §3, §4
Data set [7] is described as follows: Cytotoxic MTS assay, MRC-5. As to conditions: human, MRC-5 cells (noncancerous lung fibroblasts); MTS, 72 h of incubation. The procedure: as §1, §2, §3, §4
Data set [8] relates to CEM-DNR bulk (daunorubicin-resistant subline of CCRF-CEM cells). The data set is described as follows: Cytotoxic MTS assay, CEM-DNR. As to conditions: Homo sapiens, CEM-DNR; MTS, 72 h of incubation; read-out: Cytotoxic activity IC50, CEM-DNR. The procedure: as §1, §2, §3, §4
The subject of data set [9] is U2OS (osteosarcoma). The data set is described as follows: Cytotoxic MTS assay, U2OS. As to conditions: Homo sapiens, U2OS; MTS, 72 h of incubation; read-out: Cytotoxic activity IC50, U2OS. The procedure: as §1, §2, §3, §4
Data set [10] can be described thus: Cytotoxic MTS assay, BJLD. The settings on record: human, BJLD cells (fibroblasts, doxorubicin-resistant); MTS, 72 h of incubation. The procedure: as §1, §2, §3, §4
Data set [11] in a line: Cytotoxic MTS assay, MRC-5LD. The settings on record: human; MTS, 72 h of incubation; read-out: Cytotoxic activity IC50, MRC5-LD. The protocol:
as §1, §2, §3, §4

In data set [12] the test system is A549 (lung adenocarcinoma). Kind of data set: Cytotoxic MTS assay, A549. As to conditions: Homo sapiens, A549; MTS, 72 h of incubation; read-out: Cytotoxic activity IC50, A549. The protocol:
as §1, §2, §3, §4

With `Cc1cc(C)cc(C(=O)OCCC[S+]([O-])c2ccnc3cc(Cl)ccc23)c1` (stereo not drawn) [Compound 61, 3-[(7-Chloroquinolin-4-yl)sulfinyl]propyl-3,5-dimethylbenzoate], the IC50 (as a rule, the concentration needed to halve the response being measured) in [1] came out at 6.76 µM; in [3], 8.26 µM; in data set [4], 12.7 µM; in data set [5], 1.05 µM; in data set [6], 6.89 µM; in data set [8], 8.35 µM. The IC50 in data set [9] was 8.1 µM; in [12] it was 10.9 µM. For the same compound, the IC50 at 72 h was 30.3 µM in [2], 26.1 µM in data set [7], 27.6 µM in data set [10] and 22.1 µM in [11].
Take `COc1ccccc1C(=O)OCC[S+]([O-])c1ccnc2cc(Cl)ccc12` (stereo not drawn) [Compound 47, 2-[(7-Chloroquinolin-4-yl)sulfinyl]ethyl-2-methoxybenzoate]: the IC50 turned out to be 11.3 µM in [1]; 15.9 µM in [3]; 16.9 µM in [4]; 2.74 µM in data set [5]; 11.3 µM in [6]; 26.8 µM in data set [8]. Further, the IC50 amounted to 19.1 µM in data set [9] and 32.2 µM in data set [12]. The IC50 at 72 h is 31.2 µM in [2], 28.2 µM in data set [7], 30.7 µM in [10] and 26.1 µM in [11].
As to `COc1cc(C(=O)OCCC[S+]([O-])c2ccnc3cc(Cl)ccc23)cc(OC)c1OC` (stereo not drawn) [Compound 57, 3-[(7-Chloroquinolin-4-yl)sulfinyl]propyl-3,4,5-trimethoxybenzoate], the IC50 in [1] was found to be 14.6 µM; in data set [3] it was 19.3 µM; in data set [4], 17.4 µM; in data set [5] it was 1.51 µM; in [6], 14.8 µM; in [8], 16 µM. Also, the IC50 in data set [9] amounted to 21.3 µM; in data set [12], 30.5 µM. The IC50 at 72 h in data set [2] worked out at 33 µM; in data set [7] it was 29.9 µM; in data set [10], 31.9 µM; in [11], 25.8 µM.
Regarding `Cc1ccc([N+](=O)[O-])c(C(=O)OCC[S+]([O-])c2ccnc3cc(Cl)ccc23)c1` (stereo not drawn) [Compound 49, 2-[(7-Chloroquinolin-4-yl)sulfinyl]ethyl-5-methyl-2-nitrobenzoate], the IC50 worked out at 6.4 µM in data set [1]; 7 µM in data set [3]; 12.3 µM in [4]; 1.34 µM in data set [5]; 7.56 µM in data set [6]; 7.75 µM in [8]. Besides, the IC50 in data set [9] is 11.2 µM; in data set [12] it was 15.7 µM. Besides, the IC50 at 72 h was 30.7 µM in data set [2], > 50 µM in [7], 23.5 µM in data set [10] and > 50 µM in [11].
As for `COc1cccc(C(=O)OCCC[S+]([O-])c2ccnc3cc(Cl)ccc23)c1OC` (stereo not drawn) [Compound 54, 3-[(7-Chloroquinolin-4-yl)sulfinyl]propyl-2,3-dimethoxybenzoate], the IC50 in data set [1] turned out to be 7.63 µM; in data set [3] it was 14 µM; in [4], 14.1 µM; in data set [5] it was 1.09 µM; in data set [6], 9.19 µM; in data set [8], 10.1 µM. The IC50 is 17.2 µM in data set [9] and 25.8 µM in data set [12]. In addition, the IC50 at 72 h in data set [2] came to 30.4 µM; in data set [7], 27.2 µM; in data set [10], 26.9 µM; in data set [11], 25.1 µM.
Consider `COc1ccc(C(=O)OCC[S+]([O-])c2ccnc3cc(Cl)ccc23)cc1[N+](=O)[O-]` (stereo not drawn) [Compound 48, 2-[(7-Chloroquinolin-4-yl)sulfinyl]ethyl-4-methoxy-3-nitrobenzoate], for which the IC50 in data set [1] amounted to 9.03 µM; in data set [3] it was 17 µM; in data set [4], 16.9 µM; in [5] it was 1.42 µM; in data set [6], 10 µM; in data set [8], 12.9 µM. The IC50 in data set [9] worked out at 18.6 µM; in [12], 25 µM. Further, the IC50 at 72 h in [2] amounted to 29.2 µM; in data set [7] it was 27.8 µM; in data set [10], 27.5 µM; in [11], 24 µM.
Turning to `O=C(OCCC[S+]([O-])c1ccnc2cc(Cl)ccc12)c1ccc(C(F)(F)F)cc1` (stereo not drawn) [Compound 62, 3-[(7-Chloroquinolin-4-yl)sulfinyl]propyl-4-(trifluoromethyl)benzoate], the IC50 came to 9.15 µM in [1]; 15.7 µM in data set [3]; 17.6 µM in [4]; 1.17 µM in [5]; 9.61 µM in [6]; 10.5 µM in [8]. Moreover, the half-inhibitory concentration (IC50) in data set [9] amounted to 14.3 µM; in [12] it was 26.1 µM. The IC50 at 72 h in data set [2] was 29.9 µM; in [7], 29.4 µM; in data set [10], 30.1 µM; in data set [11] it was 25.9 µM.
On to `COc1ccc(C(=O)OCCC[S+]([O-])c2ccnc3cc(Cl)ccc23)cc1[N+](=O)[O-]` (stereo not drawn) [Compound 59, 3-[(7-Chloroquinolin-4-yl)sulfinyl]propyl-4-methoxy-3-nitrobenzoate], for which the IC50 in data set [1] worked out at 6.12 µM; in data set [3] it was 8.86 µM; in data set [4] it was 8.77 µM; in data set [5], 1.2 µM; in data set [6] it was 6.81 µM; in [8], 8.81 µM. In addition, the IC50 in [9] is 5.15 µM; in [12] it was 7.76 µM. In addition, the IC50 at 72 h in [2] was 21.6 µM; in [7] it was 23.7 µM; in [10], 10.2 µM; in data set [11] it was 10.3 µM.
Turning to `Cc1ccc([N+](=O)[O-])c(C(=O)OCCC[S+]([O-])c2ccnc3cc(Cl)ccc23)c1` (stereo not drawn) [Compound 60, 3-[(7-Chloroquinolin-4-yl)sulfinyl]propyl-5-methyl-2-nitrobenzoate], the IC50 in data set [1] stood at 4.26 µM; in [3], 7.77 µM; in data set [4], 8.86 µM; in data set [5], 1.13 µM; in [6] it was 6.06 µM; in data set [8] it was 7.27 µM. Besides, the values for the IC50 in data set [9] and in data set [12] were 5.81 µM and 9.55 µM, respectively. In addition, the IC50 at 72 h in data set [2] stood at 29 µM; in [7], 29.4 µM; in data set [10] it was 18.1 µM; in [11], 19.8 µM.
